Where two headings read alike, the source gives them in different places.
Assays:
Tm-E54K and NTG mice = assay: Echocardiography, cardiac function and morphology after three months treatment; assay type: in vivo, mouse
[1] = tested on: hearts of Tm-E54K and NTG mice; assay: Histology, cell cross-sectional area; assay type: in vivo, mouse
[2] = tested on: detergent-extracted fiber bundles of NTG and Tm-E54K mice; assay type: in vivo, mouse; conditions: 3 months treatment; for Hill Coefficient / Max. Tension / pCa50 (Ca^2+ concentration at half-maximal tension): Mean ± SEM, n = 6–8 fibers
[3] = tested on: myofilament proteins (MLC2v, TnT, cTnI, cMyBP-C); assay: Myofilament protein phosphorylation in hearts of chronically treated mice; assay type: in vivo, mouse
[4] = tested on: Akt, GSK-3β, β-catenin, phospholamban, ERK1/2, RSK3, SRF, MYPT1/2, SERCA2; assay: Western blot of signaling pathways in hearts of chronically treated mice; assay type: in vivo, mouse
[5] = tested on: β-myosin heavy chain (β-MHC); assay: β-MHC protein expression in hearts of chronically treated mice; assay type: in vivo, mouse; conditions: Tm-E54K hearts, chronic treatment; untreated Tm-E54K approximately 30%
[6] = tested on: RSK3, MYPT1/2 and SRF phosphorylation in neonatal rat ventricular myocytes (NRVM); assay type: cell-based
[7] = Tm-E54K hearts, N = 4–6 hearts per group

CCCCc1nc(Cl)c(CO)n1Cc1ccc(-c2ccccc2-c2nn[nH]n2)cc1 [losartan]
cardiac output (in words) (Tm-E54K and NTG mice): did not have improved cardiac output | heart rate (in words) (Tm-E54K and NTG mice): nor an increase in heart rate | systolic / cardiac function (in words) (Tm-E54K and NTG mice; vs. Tm-E54K untreated): no changes in cardiac function | cross-sectional cell area (in words) ([1]; NTG mice): significant decrease | cross-sectional cell area (in words) ([1]; Tm-E54K mice): no effect | maximum tension generation (in words) ([2]; NTG mice): decrease in maximum tension generation | Hill Coefficient ([2]; NTG mice): 2.10 ± 0.12 | Max. Tension ([2]; NTG mice): 25.73 ± 3.31 ^† mN/mm^2 | pCa50 (Ca^2+ concentration at half-maximal tension) ([2]; NTG mice): significant decrease in pCa50 compared to both TRV067 and untreated NTG groups | pCa50 (Ca^2+ concentration at half-maximal tension) ([2]; NTG mice, listed as Losartan): 5.60 ± 0.02 ^† | maximum tension generation (in words) ([2]; Tm-E54K mice): no significant effect | Hill Coefficient ([2]; Tm-E54K mice): 2.00 ± 0.08 | Max. Tension ([2]; Tm-E54K mice): 27.29 ± 1.07 ^∥ mN/mm^2 | MLC2v phosphorylation (in words) ([3]; Phos-Tag gel electrophoresis, NTG mice, vs. NTG untreated): significantly decreased | TnT phosphorylation (in words) ([3]; ProQ diamond, Tm-E54K mice, vs. TRV067-treated Tm-E54K, N = 4–6 hearts per group): significant decrease | cMyBP-C phosphorylation at PKA sites (in words) ([3]; mice treated with TRV067 or losartan): did not observe an increase in other PKA phosphorylatable sites, such as cMyBP-C | MYPT1/2 phosphorylation (in words) ([4]; NTG and Tm-E54K mice): no effect | RSK3 phosphorylation (in words) ([4]; NTG and Tm-E54K mice): no effect | SRF phosphorylation (in words) ([4]; NTG and Tm-E54K mice): no effect | phospholamban (PLN) phosphorylation at S16 (in words) ([4]; NTG mice, vs. untreated controls): increase | SERCA2 protein expression (in words) ([4]; Tm-E54K and NTG mice, vs. untreated): no effect | Akt phosphorylation at S473 (in words) [4, 7]: decreased | GSK-3β phosphorylation at S9 (in words) [4, 7]: decreased | β-catenin phosphorylation (in words) [4, 7]: increase | phospholamban (PLN) phosphorylation at S16 (in words) ([4]; Tm-E54K mice): increase | phospholamban (PLN) phosphorylation at T17 (in words) ([4]; Tm-E54K mice): not the T17 site | β-MHC expression, % of the isoform content [5]: approximately 10% | MYPT1/2 phosphorylation (in words) [6]: no effect | RSK3 phosphorylation (in words) [6]: no effect | SRF phosphorylation (in words) [6]: no effect

Reference: PMC5350031 (Circulation, 2017)
